{"source": "patent US9029092B2", "about": "“Solution phase homogeneous assays” (Beckman Coulter, Inc., priority 2009, dated 2015)", "test_system": "TnI", "assay": "Assays utilizing various SSIA in TnI assay", "assay_type": "biochemical", "conditions": "for Signal/Noise S1/S0: calibrator S1; for Signal/Noise S2/S0: calibrator S2; for Signal/Noise S3/S0: calibrator S3; for Signal/Noise S4/S0: calibrator S4; for Signal/Noise S5/S0: calibrator S5; for Signal/Noise S6/S0: calibrator S6", "protocol": "In a reaction tube, 400 uL of TnI M6 antibody-HRP conjugate at 0.5 ug/mL in buffered aqueous solution at pH. 8.0 (100 mM Tris, 150 mM NaCl, 0.1 mM EDTA, 0.2% Tween-20 and 1% BSA), 400 uL of AK1˜Dex70/31˜Streptavidin (fraction 1) 2:1 SA/Ab at 2 ug/mL Ab also in buffered aqueous solution at pH 8.0, and 400 uL of calibrator standard solution containing the TnI analyte at a known concentration. One tube was prepared for each calibrator concentration. […] Next, 25 uL of each antioxidant as a concentrated solution of 2 mM, 1 mM or 0.5 mM was pipetted into the plate wells using a repeater pipette. The plates were rotated for 10 seconds to mix and incubated between 5 to 33 minutes. Detection was performed with a SpectraMax L injection plate luminometer.", "key": {"[1]": {"conditions": "SSIA final concentration 125 uM"}, "[2]": {"conditions": "SSIA final concentration 250 uM"}, "[3]": {"conditions": "SSIA final concentration 500 uM"}}}
{"compound": "O=C1O[C@H]([C@@H](O)CO)C(O)=C1O", "note": "[Ascorbic Acid]", "values": [{"measurement": "Signal/Noise S1/S0", "setting": "[1]", "result": 1.4}, {"measurement": "Signal/Noise S1/S0", "setting": "[2]", "result": 1.6}, {"measurement": "Signal/Noise S1/S0", "setting": "[3]", "result": 1.3}, {"measurement": "Signal/Noise S2/S0", "setting": "[1]", "result": 2.7}, {"measurement": "Signal/Noise S2/S0", "setting": "[2]", "result": 2.6}, {"measurement": "Signal/Noise S2/S0", "setting": "[3]", "result": 1.8}, {"measurement": "Signal/Noise S3/S0", "setting": "[1]", "result": 8.5}, {"measurement": "Signal/Noise S3/S0", "setting": "[2]", "result": 8.2}, {"measurement": "Signal/Noise S3/S0", "setting": "[3]", "result": 5.1}, {"measurement": "Signal/Noise S4/S0", "setting": "[1]", "result": 32.2}, {"measurement": "Signal/Noise S4/S0", "setting": "[2]", "result": 28.7}, {"measurement": "Signal/Noise S4/S0", "setting": "[3]", "result": 15.4}, {"measurement": "Signal/Noise S5/S0", "setting": "[1]", "result": 228.0}, {"measurement": "Signal/Noise S5/S0", "setting": "[2]", "result": 188.5}, {"measurement": "Signal/Noise S5/S0", "setting": "[3]", "result": 87.5}, {"measurement": "Signal/Noise S6/S0", "setting": "[1]", "result": 2196.3}, {"measurement": "Signal/Noise S6/S0", "setting": "[2]", "result": 1511.1}, {"measurement": "Signal/Noise S6/S0", "setting": "[3]", "result": 562.4}]}
